Experimental data published in patent US6374907B1, “Hydrofluoroether as a heat-transfer fluid” (3M Innovative Properties Company, priority 1999, dated 2002).

Columns and labels:
Format in all cases: physicochemical
[1] = Physical properties of the fluids (boiling point, gel temperature, pour point); conditions: for boiling point: ambient / atmospheric pressure
Description: The pumping power calculation was made for various fluorinated fluids and is presented in TABLE 5, along with various physical properties of the fluids.

[2] = Freezing or pour point measurement; conditions: 1 ml sample cooled with liquid nitrogen; for pour point: transparent glassy solid
Protocol: Freezing or pour points were measured for 3 related hydrofluoroether samples:
The freeze and or pour points were measured by cooling a 1 ml sample contained in a double walled glass tube. The outer tube was sealed at both ends and had side ports for the addition of nitrogen gas. The inner tube was sealed at one end. The annular space between the tubes was purged with dry nitrogen and sealed. The sample was introduced into the inner tube and sealed with a septum. The temperature of the sample contained in the inner tube was monitored with an Omega Model DP-41 (available from Omega Engineering, Inc., Stamford, Conn.) resistance thermal device inserted into the fluid. The apparatus was lowered into the dewar flask of liquid nitrogen.
If the material froze to a white solid, a freezing point is reported. If instead the material became a transparent glassy solid, a pour point is reported.
The resistance thermal device was not calibrated at temperatures less than −100° C.

[3] = Specific heat by differential scanning calorimetry (ASTM E 1269-90)
Protocol: The specific heat of n-C3F7CF(OC2H5)CF(CF3)2 was measured by differential scanning calorimetry according to ASTME 1269-90 over a temperature range of −50° C. to 50° C.

[4] = Distillation curve, head temperature vs. percent boiled; conditions: until over 95% of the fluid had boiled over
Protocol: H-GALDEN™ ZT-130 fluid (199 grams) was distilled from a 250 mL boiling flask using a 12 inch (30 cm) downward slanting shell-in-tube condenser into another 250 mL receiver flask. The weight of the fluid captured by the receiver was continuously monitored using an Ohaus Model TP4000D digital balance (available from Ohaus Corp., Florham Park, N.J.). The head temperature of the distillation apparatus was monitored using a type-J thermocouple. Both weight and temperature measurements were recorded using a LABVIEW SCXI automated data acquisition system (available from National Instruments Corp., Austin, Tex.) at regular intervals during the course of the distillation, which took 20.9 minutes.
The same experiment was repeated except that 211.9 g of n-C3F7CF(OC2H5)CF(CF3)2 was used in place of the H-GALDEN™ ZT-130 fluid and the distillation took place over an 11.5 minute time interval.
Thus, better temperature and viscosity control is possible when the n-C3F7CF(OC2H5)CF(CF3)2 is employed as a wide temperature range heat-transfer fluid.

[5] = Kinematic viscosity, Cannon-Fenske viscometer
Protocol: The kinematic viscosity of n-C3F7CF(OC2H5)CF(CF3)2 was measured using a Cannon-Fenske viscometer over the temperature range −80° C. to 23° C. Data were regressed using methods outlined in ASTM Standard D 341-77.

[6] = Liquid density, Anton-Parr densitometer
Protocol: The liquid density of n-C3F7CF(OC2H5)CF(CF3)2 was measured from 10° C. to 90° C. using an Anton-Parr Model DMA58 densitometer with a DMA602 external cell. Densities below this temperature were obtained by linear extrapolation of the available data.

[7] = Thermal conductivity, transient hot-wire cell (ASTM D 2717-86); conditions: value used in place of n-C3F7CF(OC2H5)CF(CF3)2
Protocol: The thermal conductivity of n-C3F7CF(OC2H5)CF(CF3)2 was not measured. Instead, experimentally-determined values for the hydrofluoroether C4F9OC2H5 were used. These values were determined using a transient, hot-wire thermal conductivity cell over the temperature range of −50° C. to +50° C., according to ASTM D 2717-86. A platinum wire was used in the measurements. […] The thermal conductivity at 25° C. was 0.066 W/m° C.

Molecule	Gel temp [1] [°C]	Initial Boiling point [1] [°C]	boiling point [1]	pour point [2]	further results
FC(F)(F)C(F)(F)C(F)(F)N(C(F)(F)C(F)(F)C(F)(F)F)C(F)(F)C(F)(F)C(F)(F)F [FC-3283, perfluoro(tripropylamine)]	−50	130	about 130 °C		pour point [1]: −50 °C
CCOC(F)(C(F)(F)C(F)(F)F)C(F)(C(F)(F)F)C(F)(F)F (stereo not drawn) [n-C2F5CF(OC2H5)CF(CF3)2]					freeze point ([2]; froze to a white solid): −70 °C
CCOC(F)(C(F)(F)C(F)(F)C(F)(F)F)C(F)(C(F)(F)F)C(F)(F)F (stereo not drawn) [n-C3F7CF(OC2H5)CF(CF3)2, 3-ethoxy-perfluoro(2-methylhexane)]	−100	128	128 °C	less than −100 °C	Specific Heat at 25° C. [3]: 1128 J/kg° C.; change of boiling point during distillation [4]: remained unchanged; Kinematic Viscosity at 25° C. [5]: 0.77 centistokes; Liquid Density at 25° C. [6]: 1614 kg/m^3
CCOC(F)(C(F)(F)C(F)(F)C(F)(F)C(F)(F)F)C(F)(C(F)(F)F)C(F)(F)F (stereo not drawn) [n-C4F9CF(OC2H5)CF(CF3)2]				−83 °C	
C4F9OC2H5					thermal conductivity at 25° C. [7]: 0.066 W/m° C.
